Laboratory results taken from publication PMC7160673, “A Degenerate Peptide Library Approach to Reveal Sequence Determinants of Methyllysine-Driven Protein Interactions” (Frontiers in Cell and Developmental Biology, 2020).
Where a SMILES comes first, the peptide text is derived from it. Where no end group is shown, it is not given here. [ ]: non-standard residue; d: D form. Lys(Me3) = C[N+](C)(C)CCCC[C@H](N)C(=O)O; Peg = not defined here

Legend:
Assay type in all cases: binding
[1] = test system: Abcam #ab8895, anti-H3K4me1; assay: Histone peptide microarray, Abcam ab8895; settings: Abcam ab8895 (anti-H3K4me1) hits, average signal per peptide
53BP1 TTD = assay: Histone peptide microarray, 53BP1 TTD; settings: 53BP1 TTD hits, average signal per peptide
How it was run: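 Steps: print histone peptide microarray; incubate with protein or antibody in 25 mM HEPES pH 7.5, 100 mM NaCl, 0.5% BSA, 0.1% NP-40; wash three times for 5 min (PBS, 0.1% Tween-20); apply anti-GST at 1:2,000; wash; apply AlexaFluor 647-labeled secondary at 1:5,000; scan fluorescence.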

[2] = test system: Millipore #07-449, anti-H3K27me3; assay: Histone peptide microarray, Millipore 07-449; settings: Millipore 07-449 (anti-H3K27me3) hits, average signal per peptide
CDYL2 chromo [3] = molecular target: T1, CDYL2 chromo (Homo sapiens, UniProt Q8N8U2); assay: Histone peptide microarray, CDYL2 chromo; settings: normalized histone peptide array signal, hits; hybridization with 1 M CDYL2 chromo (so in the source); two subarrays
T1 construct: 1-75; made in house; host or cells: E. coli BL21
T1 sequence (Q8N8U2 1-75): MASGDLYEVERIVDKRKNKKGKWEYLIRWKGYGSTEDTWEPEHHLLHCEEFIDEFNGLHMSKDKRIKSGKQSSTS
Method: (§1) Peptide microarrays were fabricated using an Aushon 2470 microarrayer and used as described ([Cornett et al., 2017]) with the following modifications. Protein and antibody hybridization steps were performed in buffer containing 25 mM HEPES pH 7.5, 100 mM NaCl, 0.5% BSA (w/v), and 0.1% NP-40. Slides were washed 3 × 5 min in PBS supplemented with 0.1% Tween-20 between each hybridization step. Antibodies used were primary anti-GST (Sigma #7781, 1:2,000 dilution) and an AlexaFluor 647-labeled secondary antibody (Life Technologies A-21245, 1:5,000 dilution). […] Full lists of peptides queried by array analysis are in Supplementary Table S2.

[4] = test system: ABClonal #A2355, anti-H3K4me1; assay: Histone peptide microarray, ABclonal A2355; settings: Abclonal A2355 (anti-H3K4me1) hits
Method: as §1

[5] = test system: Active Motif #39161, anti-H3K9me3; assay: Histone peptide microarray, Active Motif 39161; settings: Active Motif 39161 (anti-H3K9me3) hits
CST 9733 (anti-H3K27me3) = assay: Histone peptide microarray, CST 9733; settings: histone peptide array signal normalized to the highest peptide average per subarray, hits; CST 9733 LOT:14 dilution 1:5,000
MPP8 chromo = molecular target: T2, MPP8 chromo (Homo sapiens, UniProt Q99549); assay: Histone peptide microarray, MPP8 chromo; settings: normalized histone peptide array signal, hits; hybridization with 1 M MPP8 chromo (so in the source); two subarrays
T2 construct: 50-118; made in house; host or cells: E. coli BL21
T2 sequence (Q99549 50-118): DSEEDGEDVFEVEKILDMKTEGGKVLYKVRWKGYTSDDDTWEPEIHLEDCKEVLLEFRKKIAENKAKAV
Method: as §1

CDYL2 chromo [6] = molecular target: T1, CDYL2 chromo; assay: Fluorescence polarization assay, CDYL2 chromo; settings: 10 nM N-terminal FAM peptide, 25 mM HEPES pH 7.5, 100 mM NaCl, 0.05% NP-40, average of 4 measurements from 2 independent experiments, error SD (Figure 4C)
Method: Plasmids encoding N-terminal GST fusions of each reader domain (Supplementary Table S1) were transformed into BL21 E. coli and protein expression was induced with 0.5 mM IPTG at 16°C for 6–16 h. Induced bacterial pellets were suspended in 30 mL cold 1× PBS supplemented with 1 mM DTT and 1 mM PMSF. Next, bacteria were incubated with lysozyme (Thermo #89833 LOT#ta262343) and 1 μL of Pierce universal nuclease (Pierce #88702 LOT#00775219) on ice for 30 min followed by 3 rounds of sonication (30 s sonication with 10 s rest, all on ice) using a Qsonica ultrasonic processor (500 W 20 kHz with 1/8” microtip) at 40% amplitude. Lysed bacteria were centrifuged at 38465 rcf for 45 min at 4°C. Cleared supernatant was incubated with 5 mL of Glutathione resin (Thermo #16101 LOT#UD285112) with rotation at 4°C for 16 h. Bound protein was washed 3× with 10 mL cold 1× PBS and eluted twice with 10 mL of 25 mM HEPES pH 7.5, 10 mM L-glutathione (Sigma), and 100 mM NaCl. Protein was concentrated by centrifugation at 1,500 rpm on a Sorvall Legend X1 centrifuge in Amicon Ultra-15 centrifugal filter units (UFC#903024). Protein was resuspended in 25 mM HEPES pH 7.5 and 100 mM NaCl and concentrated by centrifugation as above three times. Protein was quantified by absorbance measurement at 280 nm divided by the computed extinction coefficient (ExPASy) ([Gasteiger et al., 2003]) of the GST-tagged protein domain.
Peptides functionalized with N-terminal 5-carboxyfluorescin (FAM) were synthesized by Genscript. All 7-mer motifs were synthesized with flanking glycines to mimic the Kme-OPL design. Binding assays were done in black 384 well plates (Corning #3575). […] Polarization was measured on a Synergy Neo fluorescence plate reader (Biotek) with a 485 ± 10 nm excitation filter and a 528 ± 10 nm emission filter. […] Anisotropy units (A) were calculated using the equation A = (2P)/(3-P). Dissociation constants were determined by non-linear regression analysis of anisotropy curves by specific binding with Hill slope in GraphPad version 8.3.0.

Row | Avg Signal (CDYL2 chromo [3]) | Avg Signal (MPP8 chromo) | Kd (CDYL2 chromo [6]) | Molecule | Avg Signal [1] | Avg Signal (53BP1 TTD) | Avg Signal [2] | Avg Signal [4] | Avg Signal [5] | Avg Signal (CST 9733 (anti-H3K27me3))
1 | 0.4091 | 0.8973 | – | ARTK(Me3)QTARK(Me3)STGGKAPRKQL-K(Biot)-NH2 [H3.1K4me3K9me3] | 0.01482 | 0.1303 | 0.1282 | 0.008666 | 1 | 0.02074
2 | – | – | 100 ± 6.6 nM | C[C@H](NC(=O)[C@H](Cc1c[nH]c2ccccc12)NC(=O)CN)C(=O)N[C@@H](Cc1ccc(O)cc1)C(=O)N[C@@H](CCCC[N+](C)(C)C)C(=O)N[C@H](C(=O)NCC(=O)N[C@@H](CCCCN)C(=O)NCC(=O)O)[C@@H](C)O [GWAY(Kme3)TGKG] (H-GWAY[Lys(Me3)]TGKG-OH) | – | – | – | – | – | –
3 | 0.425 | 0.8941 | – | AR(Me2a)TKQTARK(Me2)STGGKAPRKQL-Peg-Biotin [H3.1R2me2aK9me2] | 0.226 | – | 0.0074 | 0.01048 | – | 0.0005026
4 | 0.1727 | 0.04277 | – | Ac-APRKQLATKAAR(Me2a)K(Me3)SAPSTGG-Peg-Biot [H3.3R26me2aK27me3] | 0.0125 | 0.1003 | 0.2433 | – | 0.0032 | 0.914
5 | 0.3091 | 0.4242 | – | ARTK(Ac)QTARK(Me3)STGGK(Ac)APRK(Ac)QL-K(Biot)-NH2 [H3.1K4acK9me3K14acK18ac] | – | 0.09657 | 0.04004 | – | 0.7316 | 0.01317
6 | 0.2985 | 0.7946 | – | ARTKQTARK(Me2)STGGK(Ac)APRKQL-K(Biot)-NH2 [H3.1K9me2K14ac] | 0.2875 | – | 0.00428 | 0.01354 | 0.00928 | 0.0003203
7 | 0.1904 | 0.6538 | – | ARTKQTAR(Me2s)K(Me2)STGGKAPRKQL-K(Biot)-NH2 [H3.1R8me2sK9me2] | 0.1111 | 0.3791 | – | – | – | 0.0002216
8 | 0.3941 | 1 | – | ARTKQTAR(Me2s)K(Me3)STGGKAPRKQL-K(Biot)-NH2 [H3.1R8me2sK9me3] | 0.1225 | 0.1271 | 0.05357 | – | 0.5557 | 0.01037
9 | 0.4762 | 0.8612 | – | ARTKQTAR(Me)K(Me3)STGGKAPRKQL-K(Biot)-NH2 [H3.1R8me1K9me3] | 0.156 | 0.134 | 0.03826 | 0.008113 | 0.7313 | 0.005418
10 | – | – | 3600 ± 730 nM | C[C@H](NC(=O)[C@H](CCCCN)NC(=O)CN)C(=O)N[C@@H](CCCCN)C(=O)N[C@@H](CCCC[N+](C)(C)C)C(=O)N[C@H](C(=O)NCC(=O)N[C@@H](CCCCN)C(=O)NCC(=O)O)[C@@H](C)O [GKAK(Kme3)TGKG] (H-GKAK[Lys(Me3)]TGKG-OH) | – | – | – | – | – | –
11 | 0.05586 | 0.04671 | – | PEPAKSAPAPKKGSK(Ac)KAVTKAQKK-Peg-Biot (chain 2 KAVTKAQKK-{Peg-Biot}; not fully specified; reading uncertain) [Peptide H2BK15ac] | 0.0005218 | – | 0.004399 | 0.00117 | 0.01254 | –
12 | 0.2455 | 0.5401 | – | ARTKQTAR(Me)K(Me2)STGGKAPRKQL-K(Biot)-NH2 [H3.1R8me1K9me2] | 0.138 | 0.4249 | 0.003186 | 0.001447 | 0.001142 | –
13 | 0.1889 | 0.6312 | – | ARTKQTAR(Me2a)K(Me2)STGGKAPRKQL-K(Biot)-NH2 [H3.1R8me2aK9me2] | 0.1269 | 0.547 | – | – | 0.006391 | 0.0007823
14 | 0.3975 | 0.8359 | – | ARTKQTAR(Me2a)K(Me3)STGGKAPRKQL-K(Biot)-NH2 [H3.1R8me2aK9me3] | 0.1096 | 0.2106 | 0.01827 | 0.0005778 | 0.6713 | 0.008858
15 | 1 | 0.9552 | – | Ac-TARK(Me2)STGGKAPRKQLATKAARK(Me2)SAP-Peg-K(Biot)-NH2 [H3.1K9me2K27me2] | 0.004725 | – | 0.009651 | 0.0002867 | 0.0006693 | 0.04684
16 | 0.1809 | 0.4645 | – | ARTK(Me3)QTARK(Me2)STGGKA-Peg-Biot [H3.1K4me3K9me2] | 0.004396 | – | 0.04855 | – | 0.02282 | 0.005297
17 | 0.4093 | 0.7903 | – | ARTK(Me3)QTAR(Me2s)K(Me3)STGGKAPRKQL-K(Biot)-NH2 [H3.1K4me3R8me2sK9me3] | – | 0.09278 | 0.05738 | 0.001264 | 0.5974 | 0.01805
18 | 0.3995 | 0.8021 | – | ARTK(Me3)QTAR(Me2a)K(Me3)STGGKAPRKQL-K(Biot)-NH2 [H3.1K4me3R8me2aK9me3] | – | – | 0.06329 | – | 0.5927 | 0.01316
19 | 0.2405 | 0.4754 | – | ARTK(Me)QTARK(Me2)STGGKA-Peg-Biot [H3.1K4me1K9me2] | 0.7578 | – | 0.001269 | 0.6304 | 0.004399 | 0.0001122
20 | 0.1337 | 0.2515 | – | ARTK(Me2)QTARK(Me2)STGGKA-Peg-Biot [H3.1K4me2K9me2] | 0.2534 | – | – | 0.2431 | 0.001292 | 0.0004919
